Experiments:
ULK2 = molecular target: T1, ULK2 (Homo sapiens, UniProt Q8IYT8); assay: KinomeScan kinase profiling; format: binding
T1 construct: purchased Ambit Biosciences Corp (KinomeScan); host or cells: E. coli host derived from the BL21 strain (T7 phage lysate)

DMPK2 = molecular target: T2, DMPK2 (Homo sapiens, UniProt Q6DT37); assay: KinomeScan kinase profiling; format: binding
T2 construct: purchased Ambit Biosciences Corp (KinomeScan); host or cells: T7 phage in E. coli host derived from BL21

LATS2 = molecular target: T3, LATS2 (Homo sapiens, UniProt Q9NRM7); assay: KinomeScan kinase profiling; format: binding
T3 construct: host or cells: T7 phage in E. coli host derived from BL21

PKN1 = molecular target: T4, PKN1 (Homo sapiens, UniProt Q16512); assay: KinomeScan kinase profiling; format: binding
T4 construct: purchased Ambit Biosciences Corp (KinomeScan); host or cells: E. coli host derived from BL21, infected with T7 phage
T4 sequence (Q16512 whole entry): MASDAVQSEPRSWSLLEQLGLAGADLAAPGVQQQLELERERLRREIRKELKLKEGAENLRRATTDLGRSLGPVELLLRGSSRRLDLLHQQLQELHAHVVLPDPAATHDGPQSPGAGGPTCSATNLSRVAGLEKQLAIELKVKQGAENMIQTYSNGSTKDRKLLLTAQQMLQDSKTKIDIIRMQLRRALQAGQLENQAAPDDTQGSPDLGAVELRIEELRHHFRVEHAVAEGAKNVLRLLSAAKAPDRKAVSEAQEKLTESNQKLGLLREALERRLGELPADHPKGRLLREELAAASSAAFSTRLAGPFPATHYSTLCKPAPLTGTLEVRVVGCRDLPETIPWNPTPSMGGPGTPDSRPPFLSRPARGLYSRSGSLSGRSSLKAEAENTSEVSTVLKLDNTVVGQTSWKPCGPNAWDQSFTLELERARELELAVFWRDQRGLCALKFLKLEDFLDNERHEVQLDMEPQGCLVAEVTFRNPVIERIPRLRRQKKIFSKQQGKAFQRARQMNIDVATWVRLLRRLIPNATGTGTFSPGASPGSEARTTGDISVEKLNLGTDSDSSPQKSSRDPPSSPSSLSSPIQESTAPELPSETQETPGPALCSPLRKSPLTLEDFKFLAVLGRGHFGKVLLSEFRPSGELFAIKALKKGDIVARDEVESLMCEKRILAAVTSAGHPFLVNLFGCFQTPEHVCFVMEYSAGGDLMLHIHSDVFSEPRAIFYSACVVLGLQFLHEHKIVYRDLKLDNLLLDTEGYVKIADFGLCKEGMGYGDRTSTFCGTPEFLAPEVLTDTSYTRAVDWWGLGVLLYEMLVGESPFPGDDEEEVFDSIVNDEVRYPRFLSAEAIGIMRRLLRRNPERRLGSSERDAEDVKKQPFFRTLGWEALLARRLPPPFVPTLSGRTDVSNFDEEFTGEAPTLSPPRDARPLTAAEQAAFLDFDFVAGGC

STK33 = molecular target: T5, STK33 (Homo sapiens, UniProt Q9BYT3); assay: KinomeScan kinase profiling; format: binding
T5 construct: host or cells: E. coli host derived from the BL21 strain, T7 phage lysate

HPK1 = molecular target: T6, HPK1 (Homo sapiens, UniProt Q92918); assay: KinomeScan kinase profiling; format: binding
T6 construct: host or cells: E. coli host derived from BL21, infected with T7 phage
T6 sequence (Q92918 whole entry): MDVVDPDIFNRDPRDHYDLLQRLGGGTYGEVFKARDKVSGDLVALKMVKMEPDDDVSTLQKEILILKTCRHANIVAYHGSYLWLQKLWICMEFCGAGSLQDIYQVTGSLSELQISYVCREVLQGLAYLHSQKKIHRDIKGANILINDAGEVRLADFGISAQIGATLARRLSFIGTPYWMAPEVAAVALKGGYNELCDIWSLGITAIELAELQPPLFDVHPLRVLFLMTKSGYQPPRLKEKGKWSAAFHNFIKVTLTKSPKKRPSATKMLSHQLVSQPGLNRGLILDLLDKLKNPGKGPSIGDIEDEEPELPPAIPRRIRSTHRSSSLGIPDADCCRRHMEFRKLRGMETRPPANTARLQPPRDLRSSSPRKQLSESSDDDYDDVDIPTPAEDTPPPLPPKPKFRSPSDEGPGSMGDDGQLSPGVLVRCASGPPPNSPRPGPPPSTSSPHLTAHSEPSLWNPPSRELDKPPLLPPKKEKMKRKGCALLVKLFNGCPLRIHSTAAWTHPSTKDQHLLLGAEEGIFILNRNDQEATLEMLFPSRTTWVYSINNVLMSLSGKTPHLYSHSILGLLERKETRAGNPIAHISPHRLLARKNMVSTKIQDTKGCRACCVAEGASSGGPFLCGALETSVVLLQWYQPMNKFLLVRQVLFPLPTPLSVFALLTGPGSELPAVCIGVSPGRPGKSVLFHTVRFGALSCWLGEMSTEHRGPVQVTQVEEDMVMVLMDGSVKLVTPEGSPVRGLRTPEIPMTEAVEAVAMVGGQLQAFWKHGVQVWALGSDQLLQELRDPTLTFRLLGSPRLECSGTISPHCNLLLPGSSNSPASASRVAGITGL

YANK2 = molecular target: T7, YANK2 (Homo sapiens, UniProt Q9NY57); assay: KinomeScan kinase profiling; format: binding
T7 construct: purchased Ambit Biosciences Corp (KinomeScan); host or cells: E. coli host derived from the BL21 strain (T7 phage lysate)
T7 sequence (Q9NY57 whole entry): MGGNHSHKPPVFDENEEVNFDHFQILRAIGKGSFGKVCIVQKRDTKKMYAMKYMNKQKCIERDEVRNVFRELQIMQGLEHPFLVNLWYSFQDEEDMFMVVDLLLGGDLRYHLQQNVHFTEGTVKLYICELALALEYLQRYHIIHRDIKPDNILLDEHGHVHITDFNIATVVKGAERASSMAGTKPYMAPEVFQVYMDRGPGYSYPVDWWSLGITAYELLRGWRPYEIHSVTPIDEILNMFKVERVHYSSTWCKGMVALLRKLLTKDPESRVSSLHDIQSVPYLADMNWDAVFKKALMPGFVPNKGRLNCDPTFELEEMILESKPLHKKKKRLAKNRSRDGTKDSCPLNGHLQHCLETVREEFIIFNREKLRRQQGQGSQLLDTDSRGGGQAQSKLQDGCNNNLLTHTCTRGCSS

PAK6 = molecular target: T8, PAK6 (Homo sapiens, UniProt Q9NQU5); assay: KinomeScan kinase profiling; format: binding
T8 construct: host or cells: E. coli host derived from the BL21 strain, infected with T7 phage

ACVRL1 = molecular target: T9, ACVRL1 (Homo sapiens, UniProt P37023); assay: KinomeScan kinase profiling; format: binding
T9 construct: host or cells: E. coli host derived from BL21 (T7 phage lysate)

CDC2L1 = molecular target: T10, CDC2L1 (Homo sapiens, UniProt P21127); assay: KinomeScan kinase profiling; format: binding
T10 construct: host or cells: T7 phage in E. coli (BL21-derived)

AKT2 = molecular target: T11, AKT2 (Homo sapiens, UniProt P31751); assay: KinomeScan kinase profiling; format: binding
T11 construct: host or cells: E. coli host derived from BL21 (T7 phage lysate)

MLK3 = molecular target: T12, MLK3 (Homo sapiens, UniProt Q16584); assay: KinomeScan kinase profiling; format: binding
T12 construct: host or cells: T7 phage in E. coli host derived from BL21

TAOK1 = molecular target: T13, TAOK1 (Homo sapiens, UniProt Q7L7X3); assay: KinomeScan kinase profiling; format: binding
T13 construct: host or cells: E. coli host derived from the BL21 strain, T7 phage lysate
T13 sequence (Q7L7X3 whole entry): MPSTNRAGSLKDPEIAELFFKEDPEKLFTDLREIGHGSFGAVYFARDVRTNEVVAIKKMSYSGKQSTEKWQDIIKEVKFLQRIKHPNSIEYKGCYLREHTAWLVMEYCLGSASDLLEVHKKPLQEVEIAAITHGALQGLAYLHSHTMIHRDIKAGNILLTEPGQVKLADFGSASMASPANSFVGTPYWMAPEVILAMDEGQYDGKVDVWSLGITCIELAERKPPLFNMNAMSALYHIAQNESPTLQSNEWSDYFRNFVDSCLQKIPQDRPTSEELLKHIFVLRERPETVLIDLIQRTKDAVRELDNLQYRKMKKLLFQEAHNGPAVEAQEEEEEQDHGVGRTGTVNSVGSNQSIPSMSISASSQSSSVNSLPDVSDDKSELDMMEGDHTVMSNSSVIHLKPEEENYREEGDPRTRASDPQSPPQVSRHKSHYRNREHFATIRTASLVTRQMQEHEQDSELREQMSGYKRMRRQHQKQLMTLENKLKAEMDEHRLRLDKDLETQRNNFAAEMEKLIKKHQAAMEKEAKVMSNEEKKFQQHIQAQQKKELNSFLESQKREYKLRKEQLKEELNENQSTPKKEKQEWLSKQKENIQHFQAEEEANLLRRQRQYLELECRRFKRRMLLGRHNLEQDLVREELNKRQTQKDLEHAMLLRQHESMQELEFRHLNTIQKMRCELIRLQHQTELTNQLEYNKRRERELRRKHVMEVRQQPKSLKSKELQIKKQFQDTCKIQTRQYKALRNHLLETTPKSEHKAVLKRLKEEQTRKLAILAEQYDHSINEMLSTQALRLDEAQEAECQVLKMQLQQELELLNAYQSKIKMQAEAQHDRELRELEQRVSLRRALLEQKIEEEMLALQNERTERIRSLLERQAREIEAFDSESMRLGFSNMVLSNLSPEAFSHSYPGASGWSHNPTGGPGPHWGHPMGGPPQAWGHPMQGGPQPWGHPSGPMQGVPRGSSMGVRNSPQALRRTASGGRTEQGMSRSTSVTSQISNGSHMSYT

SRPK3 = molecular target: T14, SRPK3 (Homo sapiens, UniProt Q9UPE1); assay: KinomeScan kinase profiling; format: binding
T14 construct: host or cells: E. coli host derived from the BL21 strain, T7 phage lysate

FGFR2 = molecular target: T15, FGFR2 (Homo sapiens, UniProt P21802); assay: KinomeScan kinase profiling; format: binding
T15 construct: host or cells: E. coli host derived from BL21, infected with T7 phage

CAMK2G = molecular target: T16, CAMK2G (Homo sapiens, UniProt Q13555); assay: KinomeScan kinase profiling; format: binding
T16 construct: purchased Ambit Biosciences Corp (KinomeScan); host or cells: E. coli host derived from the BL21 strain, T7 phage

IKK-beta = molecular target: T17, IKK-beta (Homo sapiens, UniProt O14920); assay: KinomeScan kinase profiling; format: binding
T17 construct: host or cells: T7 phage in E. coli host derived from BL21

[1] = molecular target: T18, RPS6KA3 (Kin.Dom.-1-N-terminal) (Homo sapiens, UniProt P51812); assay: KinomeScan kinase profiling; format: binding
T18 construct: RPS6KA3 (Kin.Dom.-1-N-terminal); host or cells: E. coli host derived from BL21, T7 phage lysate
T18 sequence (P51812 68-327 limits assumed): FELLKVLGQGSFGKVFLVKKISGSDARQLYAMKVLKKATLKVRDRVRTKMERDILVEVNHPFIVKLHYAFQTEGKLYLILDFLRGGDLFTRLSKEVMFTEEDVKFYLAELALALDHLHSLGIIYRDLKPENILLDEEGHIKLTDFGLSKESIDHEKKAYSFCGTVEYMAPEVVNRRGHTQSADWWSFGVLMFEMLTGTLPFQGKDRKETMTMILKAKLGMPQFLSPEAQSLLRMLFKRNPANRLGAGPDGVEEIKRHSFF

BMPR1A = molecular target: T19, BMPR1A (Homo sapiens, UniProt P36894); assay: KinomeScan kinase profiling; format: binding
T19 construct: purchased Ambit Biosciences Corp (KinomeScan); host or cells: E. coli host derived from the BL21 strain, T7 phage

[2] = molecular target: T20, RPS6KA1 (Kin.Dom.-2-C-terminal) (Homo sapiens, UniProt Q15418); assay: KinomeScan kinase profiling; format: binding
T20 construct: RPS6KA1 (Kin.Dom.-2-C-terminal); host or cells: E. coli host derived from BL21, T7 phage lysate

ABL1 (F317I) = molecular target: T21, ABL1 (F317I) (Homo sapiens, UniProt P00519, F317I); assay: KinomeScan kinase profiling; format: binding
T21 construct: host or cells: E. coli host derived from BL21 (T7 phage lysate)

MARK1 = molecular target: T22, MARK1 (Homo sapiens, UniProt Q9P0L2); assay: KinomeScan kinase profiling; format: binding
T22 construct: host or cells: E. coli derived from BL21, infected with T7 phage

TLK2 = molecular target: T23, TLK2 (Homo sapiens, UniProt Q86UE8); assay: KinomeScan kinase profiling; format: binding
T23 construct: purchased Ambit Biosciences Corp (KinomeScan); host or cells: E. coli host derived from the BL21 strain (T7 phage lysate)

MUSK = molecular target: T24, MUSK (Homo sapiens, UniProt O15146); assay: KinomeScan kinase profiling; format: binding
T24 construct: host or cells: T7 phage in E. coli host derived from BL21

MARK3 = molecular target: T25, MARK3 (Homo sapiens, UniProt P27448); assay: KinomeScan kinase profiling; format: binding
T25 construct: host or cells: E. coli derived from BL21, infected with T7 phage
T25 sequence (P27448 whole entry): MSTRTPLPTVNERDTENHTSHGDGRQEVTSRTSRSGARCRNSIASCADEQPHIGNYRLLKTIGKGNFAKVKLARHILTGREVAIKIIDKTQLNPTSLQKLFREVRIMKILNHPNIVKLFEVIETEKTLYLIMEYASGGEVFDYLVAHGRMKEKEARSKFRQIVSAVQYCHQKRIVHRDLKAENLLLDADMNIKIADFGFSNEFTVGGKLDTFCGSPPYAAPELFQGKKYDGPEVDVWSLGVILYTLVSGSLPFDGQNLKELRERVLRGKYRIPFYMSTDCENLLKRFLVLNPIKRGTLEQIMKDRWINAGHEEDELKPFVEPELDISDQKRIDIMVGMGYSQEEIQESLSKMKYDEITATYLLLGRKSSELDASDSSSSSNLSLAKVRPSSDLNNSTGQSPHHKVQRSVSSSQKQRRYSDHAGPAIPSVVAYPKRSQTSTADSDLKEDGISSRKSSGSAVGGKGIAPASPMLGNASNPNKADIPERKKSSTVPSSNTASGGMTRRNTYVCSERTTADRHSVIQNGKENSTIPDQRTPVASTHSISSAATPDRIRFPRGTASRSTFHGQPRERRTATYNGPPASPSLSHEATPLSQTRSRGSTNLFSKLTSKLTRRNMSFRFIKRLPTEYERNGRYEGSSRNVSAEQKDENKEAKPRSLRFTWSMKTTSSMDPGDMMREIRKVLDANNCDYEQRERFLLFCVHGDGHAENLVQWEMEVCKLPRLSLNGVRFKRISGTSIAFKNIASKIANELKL

DYRK1B = molecular target: T26, DYRK1B (Homo sapiens, UniProt Q9Y463); assay: KinomeScan kinase profiling; format: binding
T26 construct: purchased Ambit Biosciences Corp (KinomeScan); host or cells: T7 phage in E. coli host derived from BL21
T26 sequence (Q9Y463 whole entry): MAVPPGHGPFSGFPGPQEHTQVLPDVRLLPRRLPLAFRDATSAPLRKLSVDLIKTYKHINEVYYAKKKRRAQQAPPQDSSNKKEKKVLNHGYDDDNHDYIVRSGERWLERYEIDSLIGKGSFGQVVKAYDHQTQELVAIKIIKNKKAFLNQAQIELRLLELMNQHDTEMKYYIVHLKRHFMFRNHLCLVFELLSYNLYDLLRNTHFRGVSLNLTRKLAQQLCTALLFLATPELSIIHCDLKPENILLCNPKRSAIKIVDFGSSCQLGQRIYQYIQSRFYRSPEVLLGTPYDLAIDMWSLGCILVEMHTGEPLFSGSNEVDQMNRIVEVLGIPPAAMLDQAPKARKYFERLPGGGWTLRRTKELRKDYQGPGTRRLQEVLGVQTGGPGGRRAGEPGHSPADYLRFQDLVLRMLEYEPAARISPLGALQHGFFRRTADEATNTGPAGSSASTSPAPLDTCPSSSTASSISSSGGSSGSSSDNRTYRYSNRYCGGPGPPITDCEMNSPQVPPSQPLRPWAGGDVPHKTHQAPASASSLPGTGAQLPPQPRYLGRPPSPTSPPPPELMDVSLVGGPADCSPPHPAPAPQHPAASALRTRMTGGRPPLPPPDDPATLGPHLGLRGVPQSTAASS

EPHA1 = molecular target: T27, EPHA1 (Homo sapiens, UniProt P21709); assay: KinomeScan kinase profiling; format: binding
T27 construct: host or cells: E. coli host derived from BL21, T7 phage lysate

DCAMKL2 = molecular target: T28, DCAMKL2 (Homo sapiens, UniProt Q8N568); assay: KinomeScan kinase profiling; format: binding
T28 construct: purchased Ambit Biosciences Corp (KinomeScan); host or cells: T7 phage in E. coli host derived from BL21

hERG channel = hERG channel (Homo sapiens, UniProt Q12809); assay: hERG whole cell patch-clamp in CHO cells; conditions: 10 μM
Method: The test compound was evaluated at 10 μM in 0.1% DMSO (v/v). […] The vehicle control was 0.1% (v/v) DMSO in EC solution.
The selection medium was F-12 (Ham)+GlutaMAX, Ph 7.2, 10% FBS, Penicillin (100 U/mL), Streptomycin (100 μg/mL), Blasticidin S HCL (30 μg/mL) and Hygromycin B (400 μg/mL). The growth medium was F-12 (Ham)+GlutaMAX, 10% FBS, Penicillin (100 U/mL) and Streptomycin (100 μg/mL). The induction medium was F-12 (Ham)+GlutaMAX, 10% FBS, Penicillin (100 U/mL) and Streptomycin (100 μg/mL) and Doxycycline (3 μg/mL). The cell dissociation solution was 0.05% Trypsin-EDTA.

In the case of `C#Cc1cccc(Nc2ncnc3cc(OC)c(OCCCN4CCOCC4)cc23)c1` [NRC-2694, N-(3-ethylnylphenyl)-7-methoxy-6-[3-(4-morpholinyl)propoxy]-4-quinazolinamine], the “% Ctrl @ 10000 nM” value (ULK2) is reported as 39 % Ctrl, the “% Ctrl @ 10000 nM” value (DMPK2) is reported as 61 % Ctrl and the “% Ctrl @ 10000 nM” value (LATS2) is reported as 93 % Ctrl. The “% Ctrl @ 10000 nM” value (PKN1) was 50 % Ctrl, the “% Ctrl @ 10000 nM” value (STK33) was 43 % Ctrl and the “% Ctrl @ 10000 nM” value (HPK1) was 47 % Ctrl. For the same compound, the “% Ctrl @ 10000 nM” value (YANK2) was 68 % Ctrl, the “% Ctrl @ 10000 nM” value (PAK6) was 70 % Ctrl and the “% Ctrl @ 10000 nM” value (ACVRL1) was 91 % Ctrl. The “% Ctrl @ 10000 nM” value (CDC2L1) was 42 % Ctrl, the “% Ctrl @ 10000 nM” value (AKT2) was 100 % Ctrl and the “% Ctrl @ 10000 nM” value (MLK3) was 72 % Ctrl. The “% Ctrl @ 10000 nM” value (TAOK1) was 54 % Ctrl, the “% Ctrl @ 10000 nM” value (SRPK3) was 38 % Ctrl and the “% Ctrl @ 10000 nM” value (FGFR2) was 100 % Ctrl. For the same compound, the “% Ctrl @ 10000 nM” value (CAMK2G) was 58 % Ctrl, the “% Ctrl @ 10000 nM” value (IKK-beta) was 51 % Ctrl and the “% Ctrl @ 10000 nM” value [1] was 94 % Ctrl. For the same compound, the “% Ctrl @ 10000 nM” value (BMPR1A) was 100 % Ctrl, the “% Ctrl @ 10000 nM” value [2] was 49 % Ctrl and the “% Ctrl @ 10000 nM” value (ABL1 (F317I)) was 48 % Ctrl. The “% Ctrl @ 10000 nM” value (MARK1) was 56 % Ctrl, the “% Ctrl @ 10000 nM” value (TLK2) was 82 % Ctrl and the “% Ctrl @ 10000 nM” value (MUSK) was 100 % Ctrl. The “% Ctrl @ 10000 nM” value (MARK3) was 62 % Ctrl, the “% Ctrl @ 10000 nM” value (DYRK1B) was 66 % Ctrl and the “% Ctrl @ 10000 nM” value (EPHA1) was 55 % Ctrl. The “% Ctrl @ 10000 nM” value (DCAMKL2) was 69 % Ctrl and the “hERG channel, conclusion” value (hERG channel) was “an inhibitor of the hERG channel”.
